Experiment: Solubility measurement in cyclohexanone
Type: physicochemical
Parameters: key to Solubility (1.3 wt %): “O” means that the compound was easily dissolved in cyclohexanone; “A” means that the compound was dissolved in cyclohexanone at 80° C.; “X” means that the compound is not soluble in cyclohexanone
Settings: cyclohexanone, concentration of 1.3 wt %, room temperature
Procedure: It was confirmed whether each of Compounds 1 to 14, Compound A and Compound B prepared in Preparation Examples could be dissolved in cyclohexanone at a concentration of 1.3 wt % at 25° C., and the results are shown in Table 1 below. At this time, “O” means that the compound was easily dissolved in cyclohexanone, “A” means that the compound was dissolved in cyclohexanone at 80° C., and “X” means that the compound is not soluble in cyclohexanone.

Structure (SMILES)	Solubility in cyclohexanone, result in words
c1ccc(-c2c3ccccc3c(-c3ccc(-c4ccc5cc(-c6ccc7cc(-c8c9ccccc9c(-c9ccccc9)c9ccccc89)ccc7c6)ccc5c4)cc3)c3ccccc23)cc1 [Compound A]	could not be dissolved at room temperature
c1ccc2c(-c3ccc(-c4c5ccccc5c(-c5ccc(-c6cccc7c(-c8cccc9ccc(-c%10ccc(-c%11c%12ccccc%12c(-c%12cccc%13ccccc%12%13)c%12ccccc%11%12)cc%10)cc89)cccc67)cc5)c5ccccc45)cc3)cccc2c1 [Compound B, reference compound]	could not be dissolved at room temperature

Same assay, conditions: in cyclohexanone at a concentration of 1.3 wt % at 25° C.

Solubility (1.3 wt %)	Structure (SMILES)
◯	c1ccc2cc(-c3c4ccccc4c(-c4cccc5ccc(-c6ccc7cccc(-c8c9ccccc9c(-c9ccc(-c%10cccc%11ccccc%10%11)cc9)c9ccccc89)c7c6)cc45)c4ccccc34)ccc2c1 [Compound 3]
◯	c1cc(-c2ccc(-c3c4ccccc4c(-c4cccc5ccccc45)c4ccccc34)cc2)c2cc(-c3ccc4cccc(-c5c6ccccc6c(-c6cccc7oc8ccccc8c67)c6ccccc56)c4c3)ccc2c1 [Compound 6]
◯	c1ccc2c(-c3c4ccccc4c(-c4ccc(-c5ccc6ccc(-c7ccc8ccc(-c9c%10ccccc%10c(-c%10ccc%11oc%12ccccc%12c%11c%10)c%10ccccc9%10)cc8c7)cc6c5)cc4)c4ccccc34)cccc2c1 [Compound 9]
◯	c1ccc2cc(-c3c4ccccc4c(-c4ccc5ccc(-c6ccc7ccc(-c8c9ccccc9c(-c9ccc(-c%10cccc%11ccccc%10%11)cc9)c9ccccc89)cc7c6)cc5c4)c4ccccc34)ccc2c1 [Compound 10]
◯	c1cc(-c2ccc(-c3c4ccccc4c(-c4cccc5ccccc45)c4ccccc34)cc2)c2ccc(-c3ccc4c(-c5c6ccccc6c(-c6ccc7oc8ccccc8c7c6)c6ccccc56)cccc4c3)cc2c1 [Compound 12]

Second part, the compound before the results:

Structure (SMILES)	Solubility (1.3 wt %)
c1ccc2cc(-c3c4ccccc4c(-c4ccc(-c5cccc6ccc(-c7ccc8cccc(-c9c%10ccccc%10c(-c%10ccc%11ccccc%11c%10)c%10ccccc9%10)c8c7)cc56)cc4)c4ccccc34)ccc2c1 [Compound 1]	◯
c1ccc2cc(-c3ccc(-c4c5ccccc5c(-c5cccc6ccc(-c7ccc8cccc(-c9c%10ccccc%10c(-c%10ccc%11ccccc%11c%10)c%10ccccc9%10)c8c7)cc56)c5ccccc45)cc3)ccc2c1 [Compound 2]	◯
c1cc(-c2cccc3ccc(-c4ccc5cccc(-c6c7ccccc7c(-c7ccc8ccccc8c7)c7ccccc67)c5c4)cc23)cc(-c2c3ccccc3c(-c3cccc4ccccc34)c3ccccc23)c1 [Compound 4]	◯
c1cc(-c2cccc3ccc(-c4ccc5cccc(-c6c7ccccc7c(-c7ccc8ccccc8c7)c7ccccc67)c5c4)cc23)cc(-c2c3ccccc3c(-c3ccc4ccccc4c3)c3ccccc23)c1 [Compound 5]	◯
c1cc(-c2cccc3ccc(-c4ccc5cccc(-c6c7ccccc7c(-c7ccc8oc9ccccc9c8c7)c7ccccc67)c5c4)cc23)cc(-c2c3ccccc3c(-c3ccc4ccccc4c3)c3ccccc23)c1 [Compound 7]	◯
c1cc(-c2ccc(-c3c4ccccc4c(-c4cccc5ccccc45)c4ccccc34)cc2)c2cc(-c3ccc4cccc(-c5c6ccccc6c(-c6ccc7oc8ccccc8c7c6)c6ccccc56)c4c3)ccc2c1 [Compound 8]	◯
c1ccc2cc(-c3c4ccccc4c(-c4ccc(-c5cccc6cc(-c7ccc8c(-c9c%10ccccc%10c(-c%10ccc%11ccccc%11c%10)c%10ccccc9%10)cccc8c7)ccc56)cc4)c4ccccc34)ccc2c1 [Compound 11]	◯
c1ccc(-c2c3ccccc3c(-c3ccc(-c4ccc5cc(-c6ccc7cc(-c8c9ccccc9c(-c9ccccc9)c9ccccc89)ccc7c6)ccc5c4)cc3)c3ccccc23)cc1 [Compound A]	X
c1ccc2c(-c3ccc(-c4c5ccccc5c(-c5ccc(-c6cccc7c(-c8cccc9ccc(-c%10ccc(-c%11c%12ccccc%12c(-c%12cccc%13ccccc%12%13)c%12ccccc%11%12)cc%10)cc89)cccc67)cc5)c5ccccc45)cc3)cccc2c1 [Compound B, reference compound]	Δ
